Patent US8735389B2, “Treating psychological conditions using muscarinic receptor M1 antagonists” (priority 2006, dated 2014)

Legend:
[1] = test system: muscarinic receptor; details: cited from earlier work
[2] = test system: cortical receptors; details: cited from earlier work
[3] = test system: cardiac receptors; details: cited from earlier work
[4] = test system: male CD-1 mice; assay: tail suspension test (immobility time); assay type: in vivo
Excerpt: Antidepressant Effects: The tail suspension methodology was used to assess compounds for their antidepressant effects. The methodology was adapted from the original description by Stem et al. (Stem L, et al., Psychopharmacol 85:367-70, 1985; Stem L, et al., Prog Neuro-Psychopharmacol & Biol Psychiat 11:659-71, 1987) and later modifications by Crowley et al. (Crowley J J, et al., Pharmacol Biochem Beh 78(2):269-74, 2004). Seven- to eight-week-old (25-35 grams) male, CD-1 mice were housed for one week prior to testing. Mice (n=8-10 per dose group) were dosed intraperitoneally (ip) or orally (po) with the compound under investigation, and returned to their home cage for the appropriate pretreatment interval (45-60 min). Using tape, the mice were then suspended by the tail from a strain gauge. Activity over the next 6 minutes was scored by computer as either: 1) Immobility, 2) Escape Behavior or 3) Major Escape Behavior, based on the intensity of movements registered by the strain gauge. Total Immobility was calculated and expressed in seconds. […] Treatment effects are presented in Table 1 and FIGS. 1-6 as both raw Time Spent Immobile (in seconds±SEM [standard error of the mean]) and as % Reduction in Immobility=[1−(Treatment Immobility/Vehicle Immobility)]×100%. Similar superscripts in the Dose column of Table 1 denote values derived from the same experiment (to facilitate comparisons between individual treatments and co-administrations). Statistical analyses were performed using a 1-way ANOVA (analysis of variance) followed by a Bonferroni multiple comparison test with the overall alpha set at 0.05. In Table 1, asterisks (*) denote significant effects compared to vehicle-treated mice, while letters (a or b) denote significant effects compared to mice treated with a single compound (“a” for significance from antidepressant and “b” for significance from telenzepine). In Table 1, the symbol denotes p<0.05, two symbols denote p<0.01 and three symbols denote p<0.001). The symbols used for denoting statistical significance may be different in the corresponding figures.

[5] = test system: mice and rats; details: administered systemically; cited from earlier work
[6] = test system: dopamine efflux in the striatum; details: local microinjection; cited from earlier work
[7] = test system: GABA efflux; details: directly injected into the midbrain; cited from earlier work
[8] = at 90 degrees; cited from earlier work

Cc1scc2c1N(C(=O)CN1CCN(C)CC1)c1ccccc1NC2=O [(+) form of telenzepine]
antimuscarinic activity [1]: potent antimuscarinic activity | factor by which the (+) form is more effective than the (−) isomer [2]: 400 | factor by which the (+) form is more potent than the (−) form [3]: 50

Cc1scc2c1N(C(=O)CN1CCN(C)CC1)c1ccccc1NC2=O [(−) form]
antimuscarinic activity [1]: considerably less active

CNCCC(Oc1ccc(C(F)(F)F)cc1)c1ccccc1 (stereo not shown) [Fluoxetine, fluoxetine]
Reduction in Immobility ([4]; 4 mg/kg ip, experiment c): 0% | Treatment Immobility Time ([4]; 4 mg/kg ip, experiment c): 97 ± 11 s | Reduction in Immobility ([4]; 4 mg/kg ip, experiment g): 45% | Treatment Immobility Time ([4]; 4 mg/kg ip, experiment g): 81 ± 16 s | Reduction in Immobility ([4]; 20 mg/kg ip, experiment g): 45% | Treatment Immobility Time ([4]; 20 mg/kg ip, experiment g): 82 ± 16 s | Reduction in Immobility ([4]; 40 mg/kg ip, experiment g): 64% | Treatment Immobility Time ([4]; 40 mg/kg ip, experiment g): 53 ± 14 s | lowering of the effective antidepressant dose (estimated) ([4]; to 4 mg/kg by co-administering 10 mg/kg TZP): approximately 7 fold

CN1CCN(CC(=O)N2c3ccccc3C(=O)Nc3cccnc32)CC1 [Pirenzepine, 5,11-Dihydro-11-[(4-methyl-1-piperazinyl)acetyl]-6H-pyrido[2,3-b][1,4]benzodiazepin-6-one]
Reduction in Immobility ([4]; 5 mg/kg ip, experiment f): −11% | Treatment Immobility Time ([4]; 5 mg/kg ip, experiment f): 137 ± 15 s | Reduction in Immobility ([4]; 25 mg/kg ip, experiment f): 27% | Treatment Immobility Time ([4]; 25 mg/kg ip, experiment f): 90 ± 17 s | Reduction in Immobility ([4]; 50 mg/kg ip, experiment f): 38% | Treatment Immobility Time ([4]; 50 mg/kg ip, experiment f): 76 ± 12 s | effect on immobility (in words) ([4]; alone at 50 mg/kg ip (FIG. 1)): significant reduction in immobility | behavioral effects [5]: failed to elicit any behavioral effects | dopamine efflux in the striatum [6]: decreased dopamine efflux in the striatum

CN[C@H]1CC[C@@H](c2ccc(Cl)c(Cl)c2)c2ccccc21 [Sertraline, sertraline]
Reduction in Immobility ([4]; 1 mg/kg ip, experiment a): 24% | Treatment Immobility Time ([4]; 1 mg/kg ip, experiment a): 87 ± 14 s | Reduction in Immobility ([4]; 5 mg/kg ip, experiment h): 48% | Treatment Immobility Time ([4]; 5 mg/kg ip, experiment h): 63 ± 08 s | Reduction in Immobility ([4]; 5 mg/kg ip, experiment h, listed as sertraline): 48% | Reduction in Immobility ([4]; 20 mg/kg ip, experiment h): 59% | Treatment Immobility Time ([4]; 20 mg/kg ip, experiment h): 50 ± 16 s | Reduction in Immobility ([4]; 40 mg/kg ip, experiment h): 64% | Treatment Immobility Time ([4]; 40 mg/kg ip, experiment h): 44 ± 15 s | lowering of the effective antidepressant dose ([4]; to 1 mg/kg by co-administering 5 mg/kg TZP): 5 fold

Cc1scc2c1N(C(=O)CN1CCN(C)CC1)c1ccccc1NC2=O [Telenzepine, 4,9-Dihydro-3-methyl-4-[(4-methyl-1-piperazinyl)acetyl]-10H-thieno[3,4-b][1,5]benzodiazepin-10-one]
Reduction in Immobility ([4]; 5 mg/kg ip, experiment a): 30% | Treatment Immobility Time ([4]; 5 mg/kg ip, experiment a): 80 ± 14 s | Reduction in Immobility ([4]; 5 mg/kg ip, experiment b): 21% | Treatment Immobility Time ([4]; 5 mg/kg ip, experiment b): 90 ± 18 s | Reduction in Immobility ([4]; 5 mg/kg ip, experiment d): −27% | Treatment Immobility Time ([4]; 5 mg/kg ip, experiment d): 159 ± 23 s | Reduction in Immobility ([4]; 10 mg/kg ip, experiment c): 34% | Treatment Immobility Time ([4]; 10 mg/kg ip, experiment c): 64 ± 15 s | Reduction in Immobility ([4]; 25 mg/kg ip, experiment d): 33% | Treatment Immobility Time ([4]; 25 mg/kg ip, experiment d): 84 ± 07 s | Reduction in Immobility ([4]; 50 mg/kg ip, experiment d): 51% | Treatment Immobility Time ([4]; 50 mg/kg ip, experiment d): 61 ± 11 s | Reduction in Immobility ([4]; 60 mg/kg po, experiment e): 45% | Treatment Immobility Time ([4]; 60 mg/kg po, experiment e): 71 ± 15 s | Reduction in Immobility ([4]; 80 mg/kg po, experiment e): 37% | Treatment Immobility Time ([4]; 80 mg/kg po, experiment e): 82 ± 18 s | Reduction in Immobility ([4]; 100 mg/kg po, experiment e): 55% | Treatment Immobility Time ([4]; 100 mg/kg po, experiment e): 59 ± 10 s | effect on immobility (in words) ([4]; alone at 25 mg/kg ip (FIG. 2)): significant reduction in immobility | effect on immobility (in words) ([4]; alone at 60 mg/kg po (FIG. 3)): significant reduction in immobility | GABA efflux [7]: reduced GABA efflux | half time of interconversion of the two forms [8]: approximately 200 hours

COc1ccc(C(CN(C)C)C2(O)CCCCC2)cc1 (stereo not shown) [Venlafaxine, venlafaxine]
Reduction in Immobility ([4]; 3 mg/kg ip, experiment i): 8% | Treatment Immobility Time ([4]; 3 mg/kg ip, experiment i): 103 ± 21 s | Reduction in Immobility ([4]; 10 mg/kg ip, experiment b): 10% | Treatment Immobility Time ([4]; 10 mg/kg ip, experiment b): 103 ± 15 s | Reduction in Immobility ([4]; 10 mg/kg ip, experiment i): −4% | Treatment Immobility Time ([4]; 10 mg/kg ip, experiment i): 116 ± 20 s | Reduction in Immobility ([4]; 30 mg/kg ip, experiment i): 72% | Treatment Immobility Time ([4]; 30 mg/kg ip, experiment i): 31 ± 09 s | Reduction in Immobility ([4]; 30 mg/kg ip, experiment i, listed as venlafaxine): 72% | lowering of the effective antidepressant dose ([4]; to 10 mg/kg by co-administering 5 mg/kg telenzepine): 3 fold
